According to ChEMBL document CHEMBL5579821, “Non-kinase off-target inhibitory activities of clinically-relevant kinase inhibitors” (Eur J Med Chem, 2024):
Blank lines part the entries; values can stand above or below the molecule they belong to.

Tests used:
Adenosine receptor A3 = biological target: T1, Adenosine receptor A3 (Homo sapiens, UniProt P0DMS8)
T1 sequence (P0DMS8 whole entry): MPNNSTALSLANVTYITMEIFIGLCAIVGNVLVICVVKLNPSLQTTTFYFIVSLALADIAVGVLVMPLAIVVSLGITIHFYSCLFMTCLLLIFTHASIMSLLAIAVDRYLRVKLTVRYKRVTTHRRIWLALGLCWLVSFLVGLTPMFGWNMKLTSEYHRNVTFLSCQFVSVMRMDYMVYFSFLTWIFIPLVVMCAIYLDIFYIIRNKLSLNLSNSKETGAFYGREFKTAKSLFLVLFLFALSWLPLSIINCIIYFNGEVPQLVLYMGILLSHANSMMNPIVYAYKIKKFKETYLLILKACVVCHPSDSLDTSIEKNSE

clinical [1] = conditions: human, plasma, 5 mg
[2] = biological target: T2, Aldo-keto reductase family 1 member C3 (Homo sapiens, UniProt P42330)
T2 sequence (P42330 whole entry): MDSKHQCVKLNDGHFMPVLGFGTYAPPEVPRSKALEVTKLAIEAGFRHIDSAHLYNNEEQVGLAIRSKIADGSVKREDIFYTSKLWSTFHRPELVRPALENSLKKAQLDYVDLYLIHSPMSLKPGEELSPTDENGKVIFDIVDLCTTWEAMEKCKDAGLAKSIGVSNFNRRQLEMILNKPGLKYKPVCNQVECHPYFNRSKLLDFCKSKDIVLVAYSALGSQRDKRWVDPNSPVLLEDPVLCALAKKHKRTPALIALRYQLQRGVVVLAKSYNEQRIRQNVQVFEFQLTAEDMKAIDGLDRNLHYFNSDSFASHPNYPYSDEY

clinical [3] = conditions: human, 300 mg
clinical [4] = conditions: human, in vivo, po, 50 mg
cells = conditions: Homo sapiens, NIH3T3
clinical [5] = conditions: human, plasma
[6] = biological target: Proto-oncogene tyrosine-protein kinase receptor Ret (Homo sapiens, UniProt P07949)
Sequence of Proto-oncogene tyrosine-protein kinase receptor Ret (P07949 whole entry): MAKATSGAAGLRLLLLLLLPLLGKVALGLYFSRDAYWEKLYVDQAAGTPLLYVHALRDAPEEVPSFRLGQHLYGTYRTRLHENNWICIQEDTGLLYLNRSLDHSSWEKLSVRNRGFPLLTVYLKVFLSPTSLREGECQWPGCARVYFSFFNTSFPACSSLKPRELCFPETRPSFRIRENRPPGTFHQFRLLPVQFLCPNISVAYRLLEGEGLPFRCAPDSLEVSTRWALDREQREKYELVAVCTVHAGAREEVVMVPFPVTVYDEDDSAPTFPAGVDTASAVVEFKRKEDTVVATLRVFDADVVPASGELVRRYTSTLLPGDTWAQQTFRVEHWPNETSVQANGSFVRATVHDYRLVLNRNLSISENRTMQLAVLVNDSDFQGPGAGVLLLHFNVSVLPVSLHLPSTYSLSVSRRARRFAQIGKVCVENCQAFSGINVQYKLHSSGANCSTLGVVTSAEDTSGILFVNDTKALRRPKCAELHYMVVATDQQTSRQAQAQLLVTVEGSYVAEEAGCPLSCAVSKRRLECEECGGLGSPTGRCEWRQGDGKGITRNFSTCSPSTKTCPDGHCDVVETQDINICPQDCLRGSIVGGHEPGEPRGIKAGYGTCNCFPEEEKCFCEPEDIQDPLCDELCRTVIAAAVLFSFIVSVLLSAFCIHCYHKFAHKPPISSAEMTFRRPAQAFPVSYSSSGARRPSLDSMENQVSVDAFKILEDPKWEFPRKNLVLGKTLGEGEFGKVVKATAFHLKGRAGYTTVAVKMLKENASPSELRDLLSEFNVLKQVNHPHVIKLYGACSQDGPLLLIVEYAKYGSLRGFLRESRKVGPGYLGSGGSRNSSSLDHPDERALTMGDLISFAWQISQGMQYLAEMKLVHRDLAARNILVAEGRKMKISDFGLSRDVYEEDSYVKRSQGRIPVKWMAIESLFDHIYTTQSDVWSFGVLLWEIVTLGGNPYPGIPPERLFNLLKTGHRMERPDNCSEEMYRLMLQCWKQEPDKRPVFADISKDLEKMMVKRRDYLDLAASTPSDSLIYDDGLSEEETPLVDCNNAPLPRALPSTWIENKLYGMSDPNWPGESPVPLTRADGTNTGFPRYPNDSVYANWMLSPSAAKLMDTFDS

Compound: COc1cc(Nc2ncc(F)c(Nc3ccc4c(n3)NC(=O)C(C)(C)O4)n2)cc(OC)c1OC
IC50 (Adenosine receptor A3): 18 nM

Cmax (clinical [1]): 27.8 ng/mL
Compound: CNC(=O)c1ccccc1Sc1ccc2c(/C=C/c3ccccn3)n[nH]c2c1 [AXITINIB]

Kd [2]: 69 nM
Compound: CCc1cnn2c(NCc3ccc[n+]([O-])c3)cc(N3CCCC[C@H]3CCO)nc12 [DINACICLIB]

Cmax (clinical [3]): 971 ng/mL
Compound: Cc1cnc(Nc2ccc(OCCN3CCCC3)cc2)nc1Nc1cccc(S(=O)(=O)NC(C)(C)C)c1 [FEDRATINIB]

Cmax at 192 h (clinical [4]): 1600 ng/mL
Compound: CO[C@@H]1[C@H](N(C)C(=O)c2ccccc2)C[C@H]2O[C@]1(C)n1c3ccccc3c3c4c(c5c6ccccc6n2c5c31)C(=O)NC4 [MIDOSTAURIN]

IC50 (cells): 374 nM
Cmax (clinical [5]): 1640 ng/mL
Compound: Cc1cn(-c2cc(NC(=O)c3ccc(C)c(Nc4nccc(-c5cccnc5)n4)c3)cc(C(F)(F)F)c2)cn1 [NILOTINIB]

IC50 [6]: 4.8 nM
Compound: CCCS(=O)(=O)Nc1ccc(F)c(C(=O)c2c[nH]c3ncc(-c4ccc(Cl)cc4)cc23)c1F [VEMURAFENIB]
